These results are taken from patent US11993603B2, “Preparation for 6-amino-1H-pyrazolo[3,4-d]pyrimidine-based JAK kinase inhibitor and application thereof” (INSTITUTE OF MATERIA MEDICA, CHINESE ACADEMY OF MEDICAL …, priority 2018, dated 2024).

Molecules are shown by their SMILES.

What all share (type): biochemical
The target of test [1] is JAK-1 (Homo sapiens (Human), UniProt P23458). Description: Inhibition test on JAK-1 kinase (FRET peptide substrate assay). To be noted: kinase 1 nM, 1 h at room temperature. From the text: (§1) Experiment Example (Inhibition Tests on JAK-1, JAK-2 and JAK-3 Kinases)
JAK-1, sequence (P23458 whole entry): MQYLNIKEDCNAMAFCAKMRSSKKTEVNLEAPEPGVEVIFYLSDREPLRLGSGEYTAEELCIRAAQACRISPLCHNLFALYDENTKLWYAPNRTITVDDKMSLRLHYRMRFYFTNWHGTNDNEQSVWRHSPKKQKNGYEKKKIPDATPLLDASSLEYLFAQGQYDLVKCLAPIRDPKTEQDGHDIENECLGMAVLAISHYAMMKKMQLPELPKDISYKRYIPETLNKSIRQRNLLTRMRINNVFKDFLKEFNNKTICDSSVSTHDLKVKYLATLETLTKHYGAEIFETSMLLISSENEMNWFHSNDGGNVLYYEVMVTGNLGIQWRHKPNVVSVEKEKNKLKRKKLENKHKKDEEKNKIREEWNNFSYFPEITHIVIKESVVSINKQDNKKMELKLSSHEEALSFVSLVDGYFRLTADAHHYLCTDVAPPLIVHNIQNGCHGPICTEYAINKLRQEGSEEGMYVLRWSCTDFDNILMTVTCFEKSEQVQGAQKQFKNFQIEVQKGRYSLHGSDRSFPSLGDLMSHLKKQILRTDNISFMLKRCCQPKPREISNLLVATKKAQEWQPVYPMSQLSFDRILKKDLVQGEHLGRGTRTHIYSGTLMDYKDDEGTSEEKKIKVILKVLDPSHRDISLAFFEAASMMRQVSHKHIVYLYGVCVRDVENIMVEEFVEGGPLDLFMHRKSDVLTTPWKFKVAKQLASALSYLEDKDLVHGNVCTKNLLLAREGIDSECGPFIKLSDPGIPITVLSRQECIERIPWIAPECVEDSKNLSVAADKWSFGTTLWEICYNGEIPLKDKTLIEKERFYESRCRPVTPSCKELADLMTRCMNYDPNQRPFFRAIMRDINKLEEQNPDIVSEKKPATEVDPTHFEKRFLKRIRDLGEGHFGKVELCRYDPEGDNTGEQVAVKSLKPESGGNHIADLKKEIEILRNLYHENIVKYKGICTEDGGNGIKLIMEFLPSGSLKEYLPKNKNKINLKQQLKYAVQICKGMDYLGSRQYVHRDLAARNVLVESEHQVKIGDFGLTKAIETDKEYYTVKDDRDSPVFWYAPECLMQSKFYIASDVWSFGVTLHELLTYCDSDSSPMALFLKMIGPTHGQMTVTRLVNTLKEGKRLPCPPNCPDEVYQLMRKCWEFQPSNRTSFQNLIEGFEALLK
(§2) To evaluate the inhibitory activity of the compound on JAK-1, JAK-2 and JAK-3 kinases
(§3) A proteolytic enzyme is coupled to exert different proteolysis on a specific phosphorylated and nonphosphorylated peptide substrate based on fluorescence resonance energy transfer (FRET). Both ends of the peptide substrate were respectively labeled FRET energy donor coumarin and energy receptor fluorescein, and at this time, the donor was stimulated to produce energy transfer when the donor is close to a receptor.
(§4) In Kinase Reaction, JAK-1, JAK-2 or JAK-3 may transfer γ-phosphoric acid in ATP onto a single tyrosine residue of a peptide substrate; and there were JAK-1, JAK-2 or JAK-3 inhibitors in the system, γ-phosphoric acid groups on ATP would be not transferred onto the peptide substrate, thus resulting in the failure of phosphorylation. An evaluation experiment was designed based on the principle, a peptide substrate was designed with kinase phosphorylation sites, namely, protein restriction enzyme cutting sites; and both ends thereof were respectively connected with 2 fluorophores as a donor and a receptor respectively; if the kinase kept activity in the system, a γ-phosphonic acid group was transferred onto restriction enzyme cutting sites of the substrate, so that the γ-phosphonic acid group would not be cut and separated into two segments by a protease; moreover, under the stimulation of a laser having a specific wavelength, energy from a segment of fluorescence would be transferred onto another end of fluorophores, thus emitting energy. Otherwise, after kinase activity was inhibited, phosphoric acid groups would be not transferred, and restriction enzyme cutting sites in the substrate would be cut by a […] in the system to separate the substrate into two segments, thereby no energy transfer of fluorescence occurred. Based on this, the activity of the kinase was evaluated.
(§5) In this experiment, a 10 μl kinase reaction system was selected, firstly, 2.5 μl kinase (concentration: 1 nM), 2.5 μl peptide substrate (concentration: 2 μM), 2.5 μl ATP (concentration: […]) and 2.5 μl compound were added to each system for reaction for 1 h at room temperature, and then a 5 μl test solution was added for reaction for 1 h at room temperature, then a 5 μl stop buffer was added. A microplate reader (Synergy H1, BioTek, USA) was used to measure fluorescence intensity (emission intensity of coumarin at 445 nm and emission intensity of fluorescein at 520 nm were detected under the stimulation of 400 nm). The inhibitory activity of each compound was calculated, where it was believed that fluorescence intensity of a well not containing the kinase was 100% inhibited.

Test [2] has as its target JAK-2 (Homo sapiens (Human), UniProt O60674). As to the kind of experiment: Inhibition test on JAK-2 kinase (FRET peptide substrate assay). To be noted: kinase 1 nM, 1 h at room temperature.
Text: as §1, §2, §3, §4, §5

Test [3] addresses JAK-3 (Homo sapiens (Human), UniProt P52333). As to the kind of experiment: Inhibition test on JAK-3 kinase (FRET peptide substrate assay). To be noted: kinase 1 nM, 1 h at room temperature; read-out: IC50 (nM) JAK-3.
Text: as §1, §2, §3, §4, §5

JAK-3, sequence (P52333 whole entry): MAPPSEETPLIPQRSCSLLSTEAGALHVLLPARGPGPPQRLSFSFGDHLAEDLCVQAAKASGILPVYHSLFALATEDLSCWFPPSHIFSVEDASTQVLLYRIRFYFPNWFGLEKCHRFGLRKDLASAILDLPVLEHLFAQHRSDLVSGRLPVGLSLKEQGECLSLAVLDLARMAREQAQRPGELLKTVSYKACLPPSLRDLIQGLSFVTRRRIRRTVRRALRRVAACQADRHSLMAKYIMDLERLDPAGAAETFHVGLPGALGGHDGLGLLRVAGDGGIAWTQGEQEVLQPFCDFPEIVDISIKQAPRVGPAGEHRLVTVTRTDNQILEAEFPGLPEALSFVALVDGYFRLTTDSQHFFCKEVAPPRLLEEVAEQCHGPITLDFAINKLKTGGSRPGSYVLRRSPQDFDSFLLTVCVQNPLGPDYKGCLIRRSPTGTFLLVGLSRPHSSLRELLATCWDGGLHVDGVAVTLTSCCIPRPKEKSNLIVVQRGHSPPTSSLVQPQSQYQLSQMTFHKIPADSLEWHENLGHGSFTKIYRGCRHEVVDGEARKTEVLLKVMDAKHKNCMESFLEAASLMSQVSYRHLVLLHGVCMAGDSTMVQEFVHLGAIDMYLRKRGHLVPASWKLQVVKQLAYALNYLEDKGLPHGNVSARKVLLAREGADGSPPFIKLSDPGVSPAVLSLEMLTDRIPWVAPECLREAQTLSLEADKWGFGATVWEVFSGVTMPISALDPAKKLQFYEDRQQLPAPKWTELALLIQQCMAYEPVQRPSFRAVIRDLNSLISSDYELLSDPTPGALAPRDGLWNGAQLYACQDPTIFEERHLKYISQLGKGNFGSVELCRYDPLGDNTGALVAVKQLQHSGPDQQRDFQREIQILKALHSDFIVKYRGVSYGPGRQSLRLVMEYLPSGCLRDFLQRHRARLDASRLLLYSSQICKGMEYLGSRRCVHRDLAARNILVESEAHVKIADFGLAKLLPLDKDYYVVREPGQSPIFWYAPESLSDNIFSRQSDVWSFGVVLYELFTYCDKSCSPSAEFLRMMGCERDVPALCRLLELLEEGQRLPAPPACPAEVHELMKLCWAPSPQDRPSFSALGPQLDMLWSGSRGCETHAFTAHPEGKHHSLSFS
JAK-2, sequence (O60674 whole entry): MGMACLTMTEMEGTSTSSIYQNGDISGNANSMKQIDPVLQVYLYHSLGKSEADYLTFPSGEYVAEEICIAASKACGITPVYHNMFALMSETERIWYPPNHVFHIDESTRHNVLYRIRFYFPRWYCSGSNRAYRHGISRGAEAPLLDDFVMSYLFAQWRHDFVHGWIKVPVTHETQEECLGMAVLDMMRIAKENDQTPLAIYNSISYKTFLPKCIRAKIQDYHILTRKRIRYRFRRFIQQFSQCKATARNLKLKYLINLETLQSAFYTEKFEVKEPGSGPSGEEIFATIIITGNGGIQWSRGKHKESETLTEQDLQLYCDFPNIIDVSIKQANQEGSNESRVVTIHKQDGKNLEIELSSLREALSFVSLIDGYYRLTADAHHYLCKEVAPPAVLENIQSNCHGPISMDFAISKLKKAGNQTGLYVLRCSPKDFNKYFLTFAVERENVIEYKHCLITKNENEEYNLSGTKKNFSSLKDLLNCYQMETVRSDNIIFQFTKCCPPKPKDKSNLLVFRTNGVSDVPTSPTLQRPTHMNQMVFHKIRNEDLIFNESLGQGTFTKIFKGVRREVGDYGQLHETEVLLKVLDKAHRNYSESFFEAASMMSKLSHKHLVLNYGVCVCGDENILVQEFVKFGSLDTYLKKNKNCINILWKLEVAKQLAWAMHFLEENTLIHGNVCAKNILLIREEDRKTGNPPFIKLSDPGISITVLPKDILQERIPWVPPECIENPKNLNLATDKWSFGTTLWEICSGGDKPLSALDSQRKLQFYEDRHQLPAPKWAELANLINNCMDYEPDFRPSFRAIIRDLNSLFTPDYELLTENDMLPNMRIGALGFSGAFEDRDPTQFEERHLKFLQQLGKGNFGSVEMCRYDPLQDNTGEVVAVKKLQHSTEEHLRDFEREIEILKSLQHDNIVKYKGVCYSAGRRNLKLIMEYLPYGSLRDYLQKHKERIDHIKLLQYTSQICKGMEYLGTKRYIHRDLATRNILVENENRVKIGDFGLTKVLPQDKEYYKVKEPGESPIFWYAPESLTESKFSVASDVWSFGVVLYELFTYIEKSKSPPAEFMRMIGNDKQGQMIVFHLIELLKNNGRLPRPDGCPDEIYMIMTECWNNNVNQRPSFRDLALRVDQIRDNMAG

`C=CC(=O)Nc1cccc(Cn2ncc3cnc(Nc4ccccc4)nc32)c1` [Example 4, N-(3-((6-aniline-1H-pyrazolo[3,4-d]pyrimidin-1-yl)methyl)phenyl)acrylamide]: the figures for the IC50 in test [1], in test [2] and in test [3] were 901 nM, 1120 nM and 1.1 nM, respectively.

On to `C=CC(=O)Nc1ccc(Cn2ncc3cnc(Nc4cnn(CCO)c4)nc32)cc1` [Example 17, N-(4-((6-((1-(2-hydroxyethyl)-1H-pyrazol-4-yl)amino)-1H-pyrazolo[3,4-d]pyrimidin-1-yl)methyl)phenyl)acrylamide], for which the IC50 in test [1] turned out to be 1420 nM; in test [2] it was 846 nM; in test [3] it was 2 nM.

Consider `C/C=C/C(=O)Nc1cccc(Cn2ncc3cnc(Nc4ccc(N5CCN(C)CC5)cc4)nc32)c1` [Example 14, N-(3-((6-((4-(4-methylpiperazin-1-yl)phenyl)amino)-1H-pyrazolo[3,4-d]pyrimidin-1-yl)methyl)phenyl)but-2-enamide], for which the figures for the IC50 in test [1], in test [2] and in test [3] were 274 nM, 1310 nM and 0.9 nM, respectively.

Turning to `C=CC(=O)Nc1ccc(Cn2ncc3cnc(Nc4cnn(CCOC)c4)nc32)cc1` [Example 15, N-(4-((6-((1-(2-methoxyethyl)-1H-pyrazol-4-yl)amino)-1H-pyrazolo[3,4-d]pyrimidine-1-yl)methyl)phenyl)acrylamide], the IC50 is 1540 nM in test [1], 602 nM in test [2] and 0.5 nM in test [3].

Turning to `C=CC(=O)Nc1cccc(Cn2ncc3cnc(Nc4ccc(N5CCOCC5)cc4)nc32)c1` [Example 6, N-(3-((6-((4-morpholinylphenyl)amino)-1H-pyrazolo[3,4-d]pyrimidin-1-yl)methyl)phenyl)acrylamide], the results for the IC50 in test [1], in test [2] and in test [3] were 1000 nM, 3100 nM and 0.1 nM, respectively.

Turning to `C/C=C/C(=O)Nc1ccc(Cn2ncc3cnc(Nc4cnn(CCOC)c4)nc32)cc1` [Example 22, N-(4-((6-((1-(2-methoxy-ethyl)-1H-pyrazol-4-yl)amino)-1H-pyrazolo[3,4-d]pyrimidine-1-yl)methyl)phenyl)but-2-enamide], the IC50 in test [1] came to 918 nM; in test [2], 1250 nM; in test [3] it was 2 nM.

For the molecule `C/C=C/C(=O)Nc1cccc(Cn2ncc3cnc(Nc4ccc(N5CCOCC5)cc4)nc32)c1` [Example 13, N-(3-((6-((4-morpholinylphenyl)amino)-1H-pyrazolo[3,4-d]pyrimidin-1-yl)methyl)phenyl)but-2-enamide], the IC50 was 890 nM in test [1], 710 nM in test [2] and 0.4 nM in test [3].
